# Legend:
# [1] = molecular target: T1, NMDAR2A expressing HEK cell membranes (Homo sapiens, UniProt Q12879); assay: NMDAR agonist assay, [3H]MK-801 binding, NMDAR2A; assay type: biochemical; parameters: key to NMDAR2A B: log EC50: 0=−; ≥1×10^−9 M (e.g., −8)=+; <1×10^−9 M (e.g., −10)=++; details: 50 μM glutamate
# T1 construct: expressed in transfected cells; host or cells: HEK cells (membrane extract)
# Procedure, shortened: (§1)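 HEK membranes (300 μg protein) expressing each subtype were preincubated 15 min at 25 °C with 50 μM glutamate and compound (1×10^−15–1×10^−7 M) or 1 mM glycine. [3H]MK-801 (0.3 μCi) binding then ran 15 min under nonequilibrium conditions, followed by filtration. EC50 and % maximal binding against 1 mM glycine came from three-parameter fits of baseline-subtracted DPM (N=2).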
# [2] = molecular target: T2, NMDAR2A expressing HEK cell membranes (Homo sapiens, UniProt Q05586+Q12879); assay: NMDAR agonist assay, [3H]MK-801 binding, NMDAR2A; assay type: biochemical; parameters: key to NMDAR2A B: log EC50: 0=−; ≥1×10^−9 M (e.g., −8)=+; <1×10^−9 M (e.g., −10)=++; details: 0.25 h, 50 μM glutamate; read-out: NMDAR2A A: % maximal [3H]MK-801 binding relative to 1 mM glycine
# T2 construct: expressed in transfected cells; host or cells: HEK cells (membrane extract)
# Procedure, shortened: as §1
# [3] = molecular target: T3, NMDAR2B expressing HEK cell membranes (Homo sapiens, UniProt Q05586+Q13224); assay: NMDAR agonist assay, [3H]MK-801 binding, NMDAR2B; assay type: biochemical; details: 50 μM glutamate
# T3 construct: expressed in transfected cells; host or cells: HEK cells (membrane extract)
# T3 sequence (Q13224 27-1484, other chains not shown): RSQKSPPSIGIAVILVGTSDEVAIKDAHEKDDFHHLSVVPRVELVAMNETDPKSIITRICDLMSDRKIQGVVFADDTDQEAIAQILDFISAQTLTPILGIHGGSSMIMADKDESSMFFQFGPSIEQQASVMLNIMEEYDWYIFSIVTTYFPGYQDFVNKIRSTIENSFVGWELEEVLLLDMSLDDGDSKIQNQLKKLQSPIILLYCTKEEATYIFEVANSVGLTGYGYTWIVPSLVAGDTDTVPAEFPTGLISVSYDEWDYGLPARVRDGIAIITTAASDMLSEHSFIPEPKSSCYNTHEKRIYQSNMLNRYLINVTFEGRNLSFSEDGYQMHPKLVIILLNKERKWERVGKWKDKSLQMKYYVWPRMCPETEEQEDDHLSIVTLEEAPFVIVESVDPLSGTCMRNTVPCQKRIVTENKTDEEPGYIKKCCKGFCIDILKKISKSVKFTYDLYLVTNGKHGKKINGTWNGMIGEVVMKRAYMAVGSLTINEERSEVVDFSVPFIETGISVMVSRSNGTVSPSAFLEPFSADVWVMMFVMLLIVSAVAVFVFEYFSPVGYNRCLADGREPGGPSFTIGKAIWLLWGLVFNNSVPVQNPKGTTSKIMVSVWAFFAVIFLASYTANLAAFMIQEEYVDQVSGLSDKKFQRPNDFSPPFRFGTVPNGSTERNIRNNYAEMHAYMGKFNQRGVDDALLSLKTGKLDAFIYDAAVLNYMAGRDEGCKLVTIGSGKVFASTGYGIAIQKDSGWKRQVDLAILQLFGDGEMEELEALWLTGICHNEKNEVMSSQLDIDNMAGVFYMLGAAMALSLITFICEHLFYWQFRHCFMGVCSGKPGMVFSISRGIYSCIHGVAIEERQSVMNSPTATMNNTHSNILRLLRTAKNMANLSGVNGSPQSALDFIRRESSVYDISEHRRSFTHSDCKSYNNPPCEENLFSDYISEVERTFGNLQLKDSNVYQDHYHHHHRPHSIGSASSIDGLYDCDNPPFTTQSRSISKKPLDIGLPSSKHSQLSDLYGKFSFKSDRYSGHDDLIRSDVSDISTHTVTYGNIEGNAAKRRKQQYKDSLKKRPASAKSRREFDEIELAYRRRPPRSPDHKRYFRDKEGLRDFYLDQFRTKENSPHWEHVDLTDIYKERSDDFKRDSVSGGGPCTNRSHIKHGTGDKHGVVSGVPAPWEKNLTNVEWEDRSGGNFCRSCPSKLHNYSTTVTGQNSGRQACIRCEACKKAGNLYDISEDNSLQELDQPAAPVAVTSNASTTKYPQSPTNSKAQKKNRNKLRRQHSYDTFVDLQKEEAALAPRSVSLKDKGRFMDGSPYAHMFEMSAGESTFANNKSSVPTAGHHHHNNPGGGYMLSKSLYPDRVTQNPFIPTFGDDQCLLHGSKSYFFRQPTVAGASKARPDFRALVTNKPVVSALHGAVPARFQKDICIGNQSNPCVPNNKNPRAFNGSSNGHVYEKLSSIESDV
# Procedure, shortened: as §1
# IV pharmacokinetics = assay: IV pharmacokinetics; parameters: species or system Sprague Dawley rats; details: Sprague Dawley, in vivo, rat, 2 mg/kg, normal saline
# Description: Sprague Dawley rats were dosed intravenously using a normal saline formulation containing 2 mg/kg of the compounds identified in the below table. The table below summarizes the results of the IV pharmacokinetics.
# [4] = Oral pharmacokinetics (plasma, brain, CSF); assay type: in vivo, Sprague Dawley rats; details: rat, per os, 10 mg/kg
# Description: In another experiment, Sprague Dawley rats were dosed per os using a normal saline formulation containing 10 mg/kg of the compounds identified in the table below. Plasma, brain, and CSF samples were analyzed at various time points over a 24 hour period. The table below summarizes the results of the oral pharmacokinetics.
# Sprague Dawley rats [5] = assay: Porsolt forced swim test; assay type: in vivo
# Description: A non-clinical in vivo pharmacology study (Porsolt assay) was performed to measure antidepressant-like effects. A negative control (0.5% sodium carboxymethyl cellulose in 0.9% sterile saline vehicle) and a positive control (fluoxetine) are shown for comparison against test compound. The study allowed for the evaluation of the effects of each compound on the Porsolt forced swim test as assessed by the rats' response (reduced floating time) during a 5-minute swimming test.
# Male 2-3 month old Sprague Dawley rats were used (Harlan, Indianapolis, IN). Rats were housed in Lucite cages with aspen wood chip bedding, maintained on a 12:12 light:dark cycle (lights on at 5 AM), and given ad libitum access to Purina lab chow (USA) and tap water throughout the study.
# The Porsolt forced swim test adapted for use in rats was performed as described by Burgdorf et al., (The long-lasting antidepressant effects of rapastinel (GLYX-13) are associated with a metaplasticity process in the medial prefrontal cortex and hippocampus. Neuroscience 308:202-211, 2015). Animals were placed in a 46 cm tall×20 cm in diameter clear glass tube filled to 30 cm with tap water (23±1° C.) for 15 min on the first day (habituation) and 5 min on the subsequent test day. Positive control fluoxetine was dosed 3 times (24 h, 5 h and 1 h) prior to testing. Animals were tested 1 h or 24 h post-dosing with the test compounds or vehicle. Animals received a 15 min habituation session 1 day before the 5 min test. Water was changed after every other animal. Animals were videotaped, and floating time as defined as the minimal amount of effort required to keep the animals head above water was scored offline by a blinded experimenter with high inter-rater reliability (Pearson's r>0.9).
# Each compound tested at dose level shown. Significance vs. vehicle group for each experiment is marked. […] A compound marked “No” was not statistically significant from vehicle. Data was averaged for test compound and vehicle groups (N approximately 8 per group) and the percent reduction in floating for group treated with test compound relative to group treated with vehicle is shown.
# [6] = molecular target: T4, NMDAR2C expressing HEK cell membranes (Homo sapiens, UniProt Q14957); assay: NMDAR agonist assay, [3H]MK-801 binding, NMDAR2C; assay type: biochemical; details: 50 μM glutamate
# T4 construct: expressed in transfected cells; host or cells: HEK cells (membrane extract)
# T4 sequence (Q14957 20-1233, other chains not shown): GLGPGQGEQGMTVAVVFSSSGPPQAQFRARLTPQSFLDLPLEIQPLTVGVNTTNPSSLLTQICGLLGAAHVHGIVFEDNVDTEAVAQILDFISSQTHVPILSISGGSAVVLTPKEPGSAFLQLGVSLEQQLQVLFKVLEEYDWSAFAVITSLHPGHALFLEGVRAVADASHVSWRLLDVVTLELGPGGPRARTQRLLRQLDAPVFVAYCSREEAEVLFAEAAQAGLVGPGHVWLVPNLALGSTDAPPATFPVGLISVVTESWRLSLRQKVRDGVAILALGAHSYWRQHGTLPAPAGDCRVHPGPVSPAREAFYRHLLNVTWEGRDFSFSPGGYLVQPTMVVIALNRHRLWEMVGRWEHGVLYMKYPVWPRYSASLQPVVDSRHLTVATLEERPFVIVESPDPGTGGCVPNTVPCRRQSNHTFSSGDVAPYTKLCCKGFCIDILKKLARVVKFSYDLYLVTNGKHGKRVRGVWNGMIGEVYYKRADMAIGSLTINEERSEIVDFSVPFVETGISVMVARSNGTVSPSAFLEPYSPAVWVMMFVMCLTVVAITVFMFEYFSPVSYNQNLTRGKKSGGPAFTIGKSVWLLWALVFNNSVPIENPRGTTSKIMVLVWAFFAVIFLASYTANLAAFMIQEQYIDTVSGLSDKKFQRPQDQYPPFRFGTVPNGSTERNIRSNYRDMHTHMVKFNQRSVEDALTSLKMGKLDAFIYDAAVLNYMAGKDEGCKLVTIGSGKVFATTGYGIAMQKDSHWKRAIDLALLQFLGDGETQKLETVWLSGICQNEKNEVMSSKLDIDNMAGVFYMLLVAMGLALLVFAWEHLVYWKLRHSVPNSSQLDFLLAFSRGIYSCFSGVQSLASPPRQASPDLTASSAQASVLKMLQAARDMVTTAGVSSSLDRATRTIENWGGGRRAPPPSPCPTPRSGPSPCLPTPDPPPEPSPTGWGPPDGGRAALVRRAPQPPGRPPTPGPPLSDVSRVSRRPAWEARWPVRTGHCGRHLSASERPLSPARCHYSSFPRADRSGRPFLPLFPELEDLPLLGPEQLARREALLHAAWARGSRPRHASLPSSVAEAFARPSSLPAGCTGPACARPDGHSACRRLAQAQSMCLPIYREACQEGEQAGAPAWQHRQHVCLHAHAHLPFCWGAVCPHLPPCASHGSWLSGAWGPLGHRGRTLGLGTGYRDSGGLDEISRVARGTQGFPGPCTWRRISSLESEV
# Description: (§2) Assays were conducted as described by Moskal et al., “GLYX-13: a monoclonal antibody-derived peptide that acts as an N-methyl-D-aspartate receptor modulator,” Neuropharmacology, 49, 1077-87, 2005. These studies were designed to determine if the test compounds act to facilitate NMDAR activation in NMDAR2A, NMDAR2B, NMDAR2C or NMDAR2D expressing HEK cell membranes as measured by increases in [^3H]MK-801 binding.
# (§3) In the assay, 300 μg of NMDAR expressing HEK cell membrane extract protein was preincubated for 15 minutes at 25° C. in the presence of saturating concentrations of glutamate (50 μM) and varying concentrations of test compound (1×10^−15 M-1×10^−7 M), or 1 mM glycine. Following the addition of 0.3 μCi of [^3H]MK-801 (22.5 Ci/mmol), reactions were again incubated for 15 minutes at 25° C. (nonequilibrium conditions). Bound and free [^3H]MK-801 were separated via rapid filtration using a Brandel apparatus.
# In analyzing the data, the DPM (disintegrations per minute) of [^3H]MK-801 remaining on the filter were measured for each concentration of test compound or for 1 mM glycine. The DPM values for each concentration of a ligand (N=2) were averaged. The baseline value was determined from the best fit curve of the DPM values modeled using the GraphPad program and the log(agonist) vs. response(three parameters) algorithm was then subtracted from all points in the dataset. The % maximal [^3H]MK-801 binding was then calculated relative to that of 1 mM glycine: all baseline subtracted DPM values were divided by the average value for 1 mM glycine. The EC50 and % maximal activity were then obtained from the best fit curve of the % maximal [^3H]MK-801 binding data modelled using the GraphPad program and the log(agonist) vs. response(three parameters) algorithm. […]
# [7] = molecular target: T5, NMDAR2D expressing HEK cell membranes (Homo sapiens, UniProt O15399); assay: NMDAR agonist assay, [3H]MK-801 binding, NMDAR2D; assay type: biochemical; details: 50 μM glutamate
# T5 construct: expressed in transfected cells; host or cells: HEK cells (membrane extract)
# T5 sequence (O15399 28-1336, other chains not shown): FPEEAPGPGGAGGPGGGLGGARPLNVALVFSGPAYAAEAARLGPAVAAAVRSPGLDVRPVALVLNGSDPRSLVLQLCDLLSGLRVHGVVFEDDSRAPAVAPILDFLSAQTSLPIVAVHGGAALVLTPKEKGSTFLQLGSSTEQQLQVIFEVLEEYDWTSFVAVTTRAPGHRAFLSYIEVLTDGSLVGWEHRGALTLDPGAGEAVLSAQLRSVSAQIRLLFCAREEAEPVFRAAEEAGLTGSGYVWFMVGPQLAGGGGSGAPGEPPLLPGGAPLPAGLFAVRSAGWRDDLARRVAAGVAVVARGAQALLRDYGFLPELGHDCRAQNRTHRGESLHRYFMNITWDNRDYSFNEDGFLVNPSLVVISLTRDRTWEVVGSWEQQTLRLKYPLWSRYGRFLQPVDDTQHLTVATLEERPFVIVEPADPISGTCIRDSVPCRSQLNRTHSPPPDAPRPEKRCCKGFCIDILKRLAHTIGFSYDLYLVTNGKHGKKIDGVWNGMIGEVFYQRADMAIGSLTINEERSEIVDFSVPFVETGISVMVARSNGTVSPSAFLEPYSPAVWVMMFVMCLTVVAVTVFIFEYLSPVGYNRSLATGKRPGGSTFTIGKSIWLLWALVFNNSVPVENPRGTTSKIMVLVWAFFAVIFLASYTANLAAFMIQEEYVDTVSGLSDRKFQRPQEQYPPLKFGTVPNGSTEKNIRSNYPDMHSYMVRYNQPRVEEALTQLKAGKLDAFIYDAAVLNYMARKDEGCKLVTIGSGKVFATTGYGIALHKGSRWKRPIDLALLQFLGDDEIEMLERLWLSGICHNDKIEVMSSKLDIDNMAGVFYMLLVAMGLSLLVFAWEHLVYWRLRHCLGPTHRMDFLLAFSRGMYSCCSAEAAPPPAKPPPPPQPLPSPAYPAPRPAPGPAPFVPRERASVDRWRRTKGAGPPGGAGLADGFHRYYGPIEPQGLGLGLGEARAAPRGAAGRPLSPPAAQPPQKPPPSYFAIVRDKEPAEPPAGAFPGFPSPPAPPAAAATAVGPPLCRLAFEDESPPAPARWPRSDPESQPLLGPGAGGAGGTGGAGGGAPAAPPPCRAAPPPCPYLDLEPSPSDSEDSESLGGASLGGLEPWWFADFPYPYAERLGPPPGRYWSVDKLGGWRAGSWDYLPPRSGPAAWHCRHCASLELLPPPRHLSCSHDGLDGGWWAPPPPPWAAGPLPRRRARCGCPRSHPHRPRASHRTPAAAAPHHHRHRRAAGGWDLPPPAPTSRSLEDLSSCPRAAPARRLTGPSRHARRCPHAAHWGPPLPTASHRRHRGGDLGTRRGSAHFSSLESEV
# Description: as §2, §3
# (§4) In analyzing the data, the DPM (disintegrations per minute) of [^3H]MK-801 remaining on the filter were measured for each concentration of test compound or for 1 mM glycine. The DPM values for each concentration of a ligand (N=2) were averaged. The baseline value was determined from the best fit curve of the DPM values modeled using the GraphPad program and the log(agonist) vs. response(three parameters) algorithm was then subtracted from all points in the dataset. The % maximal [^3H]MK-801 binding was then calculated relative to that of 1 mM glycine: all baseline subtracted DPM values were divided by the average value for 1 mM glycine. The EC50 and % maximal activity were then obtained from the best fit curve of the % maximal [^3H]MK-801 binding data modelled using the GraphPad program and the log(agonist) vs. response(three parameters) algorithm.
# (§5) The tables below summarize the results for the wild type NMDAR agonists NMDAR2A, NMDAR2B, NMDAR2C, and NMDAR2D, and whether the compound is not an agonist (−), is an agonist (+), or is a strong agonist (++), where column A is based on the % maximal [^3H]MK-801 binding relative to 1 mM glycine (−=0; <100%=+; and >100%=++); and column B is based on log EC50 values (0=−; ≥1×10^−9 M (e.g., −8)=+; and <1×10^−9 M (e.g., −10)=++).
# [8] = molecular target: T6, NMDAR2D expressing HEK cell membranes (Homo sapiens, UniProt O15399+Q05586); assay: NMDAR agonist assay, [3H]MK-801 binding, NMDAR2D; assay type: biochemical; details: 50 μM glutamate; read-out: NMDAR2D B: log EC50 (converted)
# T6 construct: expressed in transfected cells; host or cells: HEK cells (membrane extract)
# T6 sequence (O15399 28-1336, other chains not shown): as above
# Description: as §2, §3, §4, §5
# Sprague Dawley rats [9] = assay: Bennett model of mechanical analgesia (sciatic nerve chronic constriction injury); assay type: in vivo; details: 150 mg/kg PO
# Description: The Bennett model of mechanical analgesia is used to assess the analgesic effects of compounds as measured by paw withdrawal threshold. Bennett G J, Xie Y K, “A peripheral mononeuropathy in rat that produces disorders of pain sensation like those seen in man,” Pain 33:87-107, 1988. […] Vehicle animals receive the surgery and then receive vehicle rather than test compound. Animals were tested 1 hr, 24 h and 1 wk post-test compound or vehicle administration.
# Male 2-3 month old Sprague Dawley rats were used. Harlan was the supplier for all studies. Rats were housed in Lucite cages with aspen wood chip bedding, maintained on a 12:12 light:dark cycle (lights on at 5 AM), and given ad libitum access to Purina lab chow (USA) and tap water throughout the study.
# Rats were anesthetized using inhaled isoflurane (2.5%). Sciatic nerve chronic constriction nerve injury surgery was performed as previously described (Bennett and Xie, 1988). An incision (˜1.5 cm in length) was made with a scalpel blade dorsally through skin on the right hind limb, parallel and posterior to femur. Using a small pointed hemostat, the biceps femoris and gluteus superficialis muscles were separated. Using curved blunt forceps, the common sciatic nerve was isolated and exposed. For the mechanical analgesia studies, the whole sciatic nerve was ligated. Using hemostats/forceps and chromic gut (5-0), the nerve was loosely ligated with a square knot; 3 ligatures, 1 mm apart were placed on the nerve. […] Testing occurred approximately 2 weeks post-surgery.
# During testing, rats were acclimated to the surface of a suspended wire mesh grid (1 cm×1 cm, with the wire being 0.3 cm in diameter) for 15-20 min. Starting from the smallest, each Von Frey filament was pressed perpendicularly to the plantar surface of the affected (ipsilateral) hind paw until slightly bent and then held for 6 second. If an obvious hind paw withdrawal or a flinching behavior immediately after the withdrawal of the filament was not observed, the next larger filament was used in the same manner. In case of a response, a lower filament was used. This was repeated until six responses were collected.
# For all studies, animals were baselined prior to study start to test for allodynia (defined as a paw withdrawal threshold under 5). A subset of animals was tested with gabapentin (150 mg/kg, PO) to ensure at least 50% analgesia. Once it was confirmed animals were ready for study initiation, animals were balanced across groups. All study investigators were blind to treatment conditions. Animals were dosed with 0.1, 1, 10, or 30 mg/kg of test compound via oral gavage (PO), control sets of animals were dosed with gabapentin (150 mg/kg, PO) or vehicle (0.5% Na-CMC in 0.9% sterile saline, PO). Testing occurred 1 h post-dosing with animals retested 24 hrs and 1 week post-dosing. The percent analgesia calculations for each animal were made using the following equation: % analgesia=[(log(x)−y)/((log (z)−y)]*100, where x=the paw withdrawal threshold for the drug-treated animal in grams, y=the average of the log(x) values for the vehicle treated group, and z=the paw withdrawal threshold for naïve animals in grams (historical value of 15 used). The results for Compound AA-2, where the percentage of analgesia is measured at 1 hour, 24 hours, and 1 week after compound administration are as follows: for 0.1 mg/kg dose: 22.3% at 1 h, 1.6% at 24 h, and 2.3% at 1 wk; for 1 mg/kg dose: 19.2% at 1 h, 10.7% at 24 h, and 11.0% at 1 wk; for 10 mg/kg dose: 38.1% at 1 h, 24.3% at 24 h, and 41.4% at 1 wk; and for 30 mg/kg dose: 24.4% at 1 h, 8.7% at 24 h, and 34.5% at 1 wk.
# [10] = 1 h post-dose, 20 mg/kg, dosed 3 times (24 h, 5 h and 1 h) prior to testing
smiles,measurement,setting,value
"COc1ccc(CN2CC3(CCNC(=O)C3)C2=O)cc1 (racemic) [AA-rac, 2-(4-methoxybenzyl)-2,7-diazaspiro[3.5]nonane-1,6-dione]",NMDAR2A B: log EC50,[1],−
same,Emax,[2],0%
same,EC50,[3]; read-out: NMDAR2B B: log EC50 (converted),< 1 nM
same,Emax,"[3]; 0.25 h, read-out: NMDAR2B A: % maximal [3H]MK-801 binding relative to 1 mM glycine",< 100%
same,AUC(0-t),IV pharmacokinetics,6300 ng·h/mL
same,C0,IV pharmacokinetics,5790 ng/mL
same,clearance,IV pharmacokinetics,5.28 mL/min/kg
same,half-life,IV pharmacokinetics,3.31 h
same,Vd,IV pharmacokinetics; read-out: Vss,0.56 L/kg
same,AUC(0-t),"[4]; Sprague Dawley, plasma, po",17800 ng·h/mL
same,bioavailability,"[4]; Sprague Dawley, plasma, po",57%
same,Tmax,"[4]; Sprague Dawley, plasma, po, normal saline",0.67 h
same,Cmax,"[4]; Sprague Dawley, po, plasma",5810 ng/mL
same,CSF Cmax,[4]; CSF,1466.9 ng/mL
same,Brain Cmax,[4]; brain,951 ng/mL
same,Significance vs. vehicle,"Sprague Dawley rats [5]; 1 h post-dose, 0.1 mg/kg",Yes (found to be statistically significant (p<=0.05) from vehicle at dose level shown)
same,% reduction in float time,"Sprague Dawley rats [5]; 1 h post-dose, 0.1 mg/kg, relative to vehicle group",77.4%
same,Significance vs. vehicle,"Sprague Dawley rats [5]; 24 h post-dose, 0.1 mg/kg",Yes (found to be statistically significant (p<=0.05) from vehicle at dose level shown)
same,% reduction in float time,"Sprague Dawley rats [5]; 24 h post-dose, 0.1 mg/kg, relative to vehicle group",74.40%
same,NMDAR2C A: % maximal [3H]MK-801 binding relative to 1 mM glycine,[6],− (−=0)
same,NMDAR2D A: % maximal [3H]MK-801 binding relative to 1 mM glycine,[7],+ (<100%=+)
same,EC50,[8],< 1 nM
"CNCCC(Oc1ccc(C(F)(F)F)cc1)c1ccccc1 (stereo not drawn) [Fluoxetine, fluoxetine, reference compound]",% reduction in float time,Sprague Dawley rats [5]; [10],54%
same,Significance vs. vehicle,Sprague Dawley rats [5]; [10],Yes (found to be statistically significant (p<=0.05) from vehicle at dose level shown)
"NCC1(CC(=O)O)CCCCC1 [gabapentin, reference compound]","% analgesia, for the study",Sprague Dawley rats [9]; 1 week post-administration,under 5%
same,"% analgesia, example (typical) control value",Sprague Dawley rats [9]; 1 wk,0%
same,"% analgesia, example (typical) control value",Sprague Dawley rats [9]; 1 h,72%
same,"% analgesia, for the study",Sprague Dawley rats [9]; 1 h post-administration,at least 50%
same,"% analgesia, example (typical) control value",Sprague Dawley rats [9]; 24 h,16%
same,"% analgesia, for the study",Sprague Dawley rats [9]; 24 h post-administration,under 5%

# From US12084444B2, “Spiro-lactam NMDA modulators and methods of using same” (Tenacia Biotechnology (Hong Kong) Co., Limited, priority 2016, dated 2024)
